Patent publication US20260241036A1, “CHEMOGENETICS-BASED THERAPY FOR NEUROLOGICAL DISORDERS” (GATEWAY BIOTECHNOLOGY, INC., priority 2023, published 2026)

How the values were obtained:
[1] = tested on: excitatory neurons of the IC; assay: Sound-based avoidance detection (SBAD) testing in the chemogenetic model of tinnitus (excitatory DREADD injected into the IC, activated by CNO); assay type: in vivo, C57BL/6J mice
Experimental: (§1) Using a shuttle box divided into two compartments, mice were trained to cross from side to side with sound cues in the “Go” trials and remain still in the absence of sound in the “No-Go” trials for 15 days. […] The sound cues were randomly played as white noise or narrow-band noise at 5, 10, 16, 20, and 32 kHz with sound intensities randomly at 75, 80, or 85 dB. […] Additionally, a hurdle was added on training 11 to reinforce the training. After the 15th training day, mice were tested for 3 days to obtain a baseline score to be compared after noise exposure, as well as retraining for 3 days.
Following the successful completion of training so that mice reached a high percentage of success in the trials, the mice were exposed to a noise-induced trauma for tinnitus. To ensure that the mice still have their hearing, one ear was protected with an ear plug, while the other ear was exposed to the noise. The mice were placed in a sound booth where they were exposed to 120 dB broadband noise at 4-25 kHz for 2-4 hours. Following the noise exposure, the mice were housed for one month, and then tested to see if they have developed tinnitus. In these testing periods, the mice were tested for three days in the shuttle boxes, where they underwent the Go and No-Go trials, however in the No-Go trials the mice were not shocked, as it is expected that mice with tinnitus would cross compartments in the absence of a sound cue. The mice were continued to be shocked in the Go trials in order to ensure that they have retained their hearing and can hear the sound cues. […] To insure there is a significant difference in the No-Go trial scores, chi-square tests were completed comparing the post-noise exposure tests to the baseline tests. However, if tinnitus is not present in the mice, tests were done after waiting one more month, and another if needed.
A chemogenetic-based model was established by using DREADDs to target excitatory neurons of the IC to establish a more reliable and efficient tinnitus model in mice. […]

[2] = SBAD testing of a control group of SBAD trained animals given CNO, to rule out off-target effects of CNO; assay type: in vivo, mice; details: control group of three SBAD trained animals; CNO IP 5 mg/kg one hour before SBAD testing
Experimental: as §1
A chemogenetic-based model was established by using DREADDs to target excitatory neurons of the IC to establish a more reliable and efficient tinnitus model in mice. Stereotaxic microinjections of excitatory DREADDs [AAV8-CaMKIIa-HM3D-mCherry] were performed in these C57BL/6J mice, similar to previous studies (Saloman et al., 2016; Smith et al. 2016; Horii-Hayashi & Nishi 2021). Coordinates for microinjections were based on the atlas of Paxinos and Watson (2006) (AP: −5.00 mm, ML: +/−1.00 mm, DV: −1.50 mm). Mice were anesthetized with 5% isoflurane and placed in a stereotaxic head frame. During surgery mice were maintained at a 1.5-2% isoflurane level. Hair was removed and a vertical incision was made to expose the skull. The skull was leveled between bregma and lambda. […]

C[N+]1([O-])CCN(C2=Nc3cc(Cl)ccc3Nc3ccccc32)CC1 [CNO, Clozapine-N-oxide]
number of animals tested positive for tinnitus ([1]; of eight animals, one hour after IP injection of CNO, chi-squared, p<0.03): seven
animals tested positive for tinnitus (share of animals) ([1]; one hour after IP injection of CNO, eight mice with 50 or 150 nL AAV8-CaMKIIa-HM3D-mCherry bilaterally in the IC, chi-squared, p<0.03): 87%
SBAD No-Go scores post-CNO injections compared to baseline and saline injections ([1]; post-hoc t-tests (Bonferoni adjusted), p<.001, mice with AAV8-CaMKIIa-HM3D-mCherry in the IC): significantly reduced
Go and No-Go scores post-CNO injections (behavioral side effects of CNO) [2]: remained stable
